Each structure is given as a SMILES string.

Series [1] can be described thus: Degree of solubility in propylene glycol monomethyl ether acetate (PGMEA). The series is classed as physicochemical. To be noted: for Degree of solubility (%): in propylene glycol monomethyl ether acetate (PGMEA); for Degree of solubility in PGMEA compared with Comparative Examples 1 to 3 (identical anion, different cation): versus Comparative Examples 1 to 3. The procedure: The degrees of solubility in propylene glycol monomethyl ether acetate (PGMEA) of the photo-acid generators (A-1) to (A-10) of the present invention and the photo-acid generators (H-1) to (H-3) of comparative examples were measured.
The degree of solubility determined by the above-mentioned operations was judged according to the following criteria. The results are shown in Table 2. • S: 30% or more • A: 5% or more but less than 30% • B: 1% or more but less than 5% • C: less than 1%

The nature of series [2]: Evaluation of light sensitivity: acid generation ratio after ArF excimer lamp exposure (Rhodamine B base colour reagent). The series is classed as physicochemical. The note with it: 2.5 mM in acetonitrile with 2.5 mM Rhodamine B base; ArF excimer lamp 193 nm, 1.8 mW/cm^2, integrated amount of light 100 mJ/cm^2. The protocol:
The photo-acid generators (A-1) to (A-10) of the present invention and the photo-acid generators (H-1) to (H-3) of comparative examples were each diluted with acetonitrile so that their molar concentrations would be 2.5 mM, and then Rhodamine B base (a color reagent for an acid, produced by Sigma-Aldrich) was added to the respective solutions so that the molar concentration would be 2.5 mM, yielding sample solutions.
A sample solution obtained above was put into a quartz cell having an optical path length of 1 cm and then was exposed to light under prescribed conditions using an ArF excimer lamp (center wavelength=193 nm). The absorbance near 556 nm of the respective sample solutions after exposure to light was measured with a spectrophotometer (UV-vis) because the photo-acid generator in a sample solution is decomposed upon exposure to light to generate an acid, which then reacts with Rhodamine B base and, as a result, the absorbance near 556 nm increases. Based on the absorbance at 556 nm, the molar concentration of the acid in the sample solution after exposure to light was determined using a calibration curve (standard substance: p-toluenesulfonic acid). From the acid concentration determined and the initial concentration of the photo-acid generator, the acid generation ratio was determined by the following calculation.
The acid generation ratio determined by the above-mentioned operations was judged according to the following criteria. The results are shown in Table 2. • A: 55% or more • C: less than 55% • (Light Exposure Conditions) • Photolithography machine: ArF excimer lamp (manufactured by USHIO INC.) • Illuminance (measured with a 193 nm head illuminometer): 1.8 mW/cm^2 • Integrated amount of light (measured with a 193 nm head illuminometer): 100 mJ/cm^2 <Evaluation of Solubility> (Measurement of Degree of Solubility)

As to `FC(F)(F)c1cccc([S+](c2ccccc2)c2ccccc2)c1` [A-9], the “Degree of solubility (%)” value in series [1] was “S (30% or more)”. For the same molecule, the “Acid generation ratio (%)” value in series [2] is reported as “A (55% or more)”.
Take `O=S(=O)([O-])C(F)(F)F.c1ccc([S+](c2ccccc2)c2ccccc2)cc1` [H-1, Triphenylsulfonium trifluoromethanesulfonate, reference compound]: in series [1], the “Degree of solubility (%)” value is recorded as “C (less than 1%)”. The “Acid generation ratio (%)” value in series [2] was “A (55% or more)”.
For `FC(F)(F)c1cccc([S+](c2ccccc2)c2ccccc2)c1` [A-8], in series [1], the “Degree of solubility (%)” value is given as “S (30% or more)”. The “Acid generation ratio (%)” value in series [2] is reported as “A (55% or more)”.
Turning to `Fc1cccc([S+](c2ccccc2)c2ccccc2)c1` [A-3], in series [1], the “Degree of solubility (%)” value is on record as “S (30% or more)”. For the same molecule, the “Acid generation ratio (%)” value in series [2] is on record as “A (55% or more)”.
Taken in the same sequence, the figures for `Fc1cccc([S+](c2ccccc2)c2ccccc2)c1` [A-2] were “S (30% or more)” and “A (55% or more)”.
Consider `Cc1ccc([S+](c2ccccc2)c2ccccc2)cc1.O=S(=O)([O-])C(F)(F)F` [H-2, (4-Methylphenyl)diphenylsulfonium trifluoromethanesulfonate, reference compound], for which the “Degree of solubility (%)” value in series [1] is given as “B (1% or more but less than 5%)”. The “Acid generation ratio (%)” value in series [2] was “C (less than 55%)”.
As for `Fc1cccc([S+](c2ccccc2)c2ccccc2)c1` [A-1], in series [1], the “Degree of solubility in PGMEA compared with Comparative Examples 1 to 3 (identical anion, different cation)” value is “higher” and the “Degree of solubility (%)” value is given as “A (5% or more but less than 30%)”. The “Acid generation ratio (%)” value in series [2] is recorded as “A (55% or more)”.
As for `FC(F)(F)c1cccc([S+](c2ccccc2)c2ccccc2)c1` [A-6, diphenyl-3-trifluoromethylphenylsulfonium trifluoromethane sulfonate], in series [1], the “Degree of solubility in PGMEA compared with Comparative Examples 1 to 3 (identical anion, different cation)” value is given as “higher” and the “Degree of solubility (%)” value is listed as “A (5% or more but less than 30%)”. For the same molecule, the “Acid generation ratio (%)” value in series [2] is “A (55% or more)”.
Regarding `Fc1cccc([S+](c2ccccc2)c2ccccc2)c1` [A-4], in series [1], the “Degree of solubility (%)” value was “S (30% or more)”. In addition, the “Acid generation ratio (%)” value in series [2] is “A (55% or more)”.
As to `FC(F)(F)c1cccc([S+](c2ccccc2)c2ccccc2)c1` [A-7], the “Degree of solubility (%)” value in series [1] was “S (30% or more)”. Moreover, the “Acid generation ratio (%)” value in series [2] is given as “A (55% or more)”.
In the case of `Fc1ccc([S+](c2ccccc2)c2ccccc2)cc1.O=S(=O)([O-])C(F)(F)F` [H-3, (4-Fluorophenyl)diphenylsulfonium trifluoromethanesulfonate, reference compound], the “Degree of solubility (%)” value in series [1] is recorded as “B (1% or more but less than 5%)”. Also, in series [2], the “Acid generation ratio (%)” value is “C (less than 55%)”.

The values above are taken from patent publication US9045398B2, “Sulfonium salt and photo-acid generator” (SAN-APRO LTD., priority 2013, dated 2015).
